According to US8461181B2, “Fused heterocyclic compound and use thereof” (Sumitomo Chemical Company, Ltd., priority 2009, dated 2013):

What was measured:
Type in all cases: in vivo
Aphis gossypii [1] = assay: Test Example 3: root immersion of cucumber seedling, Aphis gossypii; conditions: 168 h, cucumber root part immersed in 5 ml, inoculated one day after treatment, checked seven days after
Protocol: The formulations of the present active compounds (18), (19), (21), (22), (24), (25), (28), (31) to (34), (46), (47), (52), (53), (101) to (104), (106) to (108), (112) to (114), (117), (118), (122), (123), (126), (128), (129), (133), (134), (138), (144), (153) to (155) and (157) obtained by Formulation Example 5 were diluted with water so that the active ingredient concentration was 500 ppm, to prepare diluted solutions for test. A root part of a cucumber seedling (first true leaf spreading stage) from which soil had been washed off was immersed in 5 ml of this diluted solution, and one day after treatment, the cucumber leaf surface was inoculated with 30 Aphis gossypii (whole stage). Further seven days after, the number of insect of living Aphis gossypii […] on the leaves of this cucumber was checked, and the control value was calculated according to the following formula. Control value (%)={1-(Cb×Tai)/(Cai×Tb)}×100 Letters in the formula represent the following meanings. Cb: the number of insect before treatment on non-treated district Cai: the number of insect in observation on non-treated district Tb: the number of insect before treatment on treated district Tai: the number of insect in observation on treated district

Aphis gossypii [2] = assay: Test Example 4: foot drench of cucumber seedling in plastic cup, inoculation after 7 days, Aphis gossypii; conditions: soil, 144 h, 5 ml drench at foot of cucumber seedling in plastic cup, kept 7 days at 25° C., inoculated, further 6 days
Protocol: The formulations of the present active compounds (3) to (7), (17), (19), (20), (22), (29) to (31), (35) to (37), (39), (41) to (45), (47) to (56), (101), (106), (121) to (123), (128), (131), (137), (139), (143), (145), (147), (211) to (213), (216) and (217) obtained by Formulation Example 5 were diluted with water so that the active ingredient concentration was 500 ppm, to prepare diluted solutions for test. Separately, a cucumber seedling (second true leaf spreading stage) planted on a plastic cup was drenched at its foot with each 5 ml of the diluted solutions, and kept in a greenhouse of 25° C. for 7 days. The cucumber leaf surface was inoculated with 30 Aphis gossypii (whole stage), and further kept in the greenhouse for 6 days, then, the number of insect of living Aphis gossypii […] on the leaves of this cucumber was checked, and the control value was calculated according to the following formula. Control value (%)={1-(Cb×Tai)/(Cai×Tb)}×100 Letters in the formula represent the following meanings. Cb: the number of insect before treatment on non-treated district Cai: the number of insect in observation on non-treated district Tb: the number of insect before treatment on treated district Tai: the number of insect in observation on treated district

Nilaparvata lugens = assay: Test Example 9: foot drench of rice seedling, twenty first instar larvae of Nilaparvata lugens; conditions: soil, 144 h, 5 ml drench at foot of rice seedling, kept 7 days, twenty first instar larvae released, further 6 days
Protocol: The formulations of the present active compounds (6), (7), (18), (22), (25), (30), (33), (46), (47), (53), (101) to (103), (106), (121) to (124), (126) to (128), (135), (139), (216) and (217) obtained by Formulation Example 5 were diluted with water so that the active ingredient concentration was 500 ppm, to prepare diluted solutions for test. Separately, a rice seedling (2 weeks after sowing, second leaf spreading stage) planted on a plastic cup was drenched at its foot with each 5 ml of the diluted solutions, and kept in a greenhouse of 25° C. for 7 days. Twenty first instar larvae of Nilaparvata lugens were released, and further kept in the greenhouse for 6 days, then, the number of insect of living Nilaparvata lugens […] on rice was checked, and the control value was calculated according to the following formula. Control value (%)={1-(Cb×Tai)/(Cai×Tb)}×100 Letters in the formula represent the following meanings. Cb: the number of insect before treatment on non-treated district Cai: the number of insect in observation on non-treated district Tb: the number of insect before treatment on treated district Tai: the number of insect in observation on treated district

Structure (SMILES) | pest or weed control at 500 ppm (Aphis gossypii [1]) [%] | pest or weed control at 500 ppm (Aphis gossypii [2]) [%] | pest or weed control at 500 ppm (Nilaparvata lugens) [%]
Cn1c(-c2ccncc2S(C)(=O)=O)nc2cc(C(F)(F)F)ccc21 [present active compound 19, 2-(3-methanesulfonylpyridin-4-yl)-1-methyl-5-trifluoromethyl-1H-benzimidazole] | ≥ 90 | ≥ 90 | 
C[S+]([O-])c1cnccc1-c1nc2cc(C(F)(F)F)ccc2n1C1CC1 (stereo not drawn) [present active compound 30, 1-cyclopropyl-2-(3-methanesulfinylpyridin-4-yl)-5-trifluoromethyl-1H-benzimidazole] |  |  | ≥ 90
CC[S+]([O-])c1cnccc1-c1nc2cc(C(F)(F)F)ccc2n1C1CC1 (stereo not drawn) [present active compound 33, 1-cyclopropyl-2-(3-ethanesulfinylpyridin-4-yl)-5-trifluoromethyl-1H-benzimidazole] |  |  | ≥ 90
CCOc1cnccc1-c1nc2cc(C(F)(F)F)cnc2n1C [present active compound 39, 2-(3-ethoxypyridin-4-yl)-3-methyl-6-trifluoromethyl-3H-imidazo[4,5-b]pyridine] |  | ≥ 90 | 
CCOCCOc1cnccc1-c1nc2cc(C(F)(F)F)cnc2n1C [present active compound 47, 2-[3-(2-ethoxyethoxy)-pyridin-4-yl]-3-methyl-6-trifluoromethyl-3H-imidazo[4,5-b]pyridine] | ≥ 90 |  | ≥ 90
CCS(=O)(=O)c1cnccc1-c1nc2cc(C(F)(F)F)cnc2n1C [present active compound 53, 2-(3-ethanesulfonylpyridin-4-yl)-3-methyl-6-trifluoromethyl-3H-imidazo[4,5-b]pyridine] | ≥ 90 |  | ≥ 90
CC(C)Sc1cnccc1-c1nc2cc(C(F)(F)F)cnc2n1C [present active compound 101] |  | ≥ 90 | 
Cn1c(-c2ccncc2SCCF)nc2cc(C(F)(F)F)cnc21 [present active compound 128] | ≥ 90 | ≥ 90 | 
CN(C)S(=O)(=O)c1cnccc1-c1nc2cc(C(F)(F)F)cnc2n1C [present active compound 131] |  | ≥ 90 | 
C#CCSc1cnccc1-c1nc2cc(C(F)(F)F)cnc2n1C [present active compound 135] |  |  | ≥ 90
CNC(=O)c1cnccc1-c1nc2cc(C(F)(F)F)cnc2n1C [present active compound 137] |  | ≥ 90 | 
COC(=O)c1cnccc1-c1nc2cc(C(F)(F)F)cnc2n1C [present active compound 143] |  | ≥ 90 | 
Cn1c(-c2ccncc2SCC2CC2)nc2cc(C(F)(F)F)cnc21 [present active compound 145] |  | ≥ 90 | 
COCCSc1cnccc1-c1nc2cc(C(F)(F)F)cnc2n1C [present active compound 147] |  | ≥ 90 | 
